The target of the assay is T1, EspJ28-217 (Escherichia coli, UniProt B7ULW8).
T1 construct: gene E2348C_0723; residues 28-217, lacking N-terminal secretion signal; 15N-labelled for NMR
The assay is described as follows: 1H-15N HSQC NMR titration. In kind it is binding. Particulars: 0.25 mM 15N-labelled protein, 1 or 10 molar equivalents of NAD+; 50 mM NaPO4 pH 7.4, 200 mM NaCl, 5 mM beta-mercaptoethanol, 10% D2O, 295 K; also ADP-ribose donor with GST-Src (150 uM NAD+ and labelle).

Molecules are shown by their SMILES.

Results on 1 compound are retold here after paper PMC4284639, “The Escherichia coli effector EspJ blocks Src kinase activity via amidation and ADP ribosylation” (Nature Communications, 2014).

T1 sequence (B7ULW8 entry or part of it): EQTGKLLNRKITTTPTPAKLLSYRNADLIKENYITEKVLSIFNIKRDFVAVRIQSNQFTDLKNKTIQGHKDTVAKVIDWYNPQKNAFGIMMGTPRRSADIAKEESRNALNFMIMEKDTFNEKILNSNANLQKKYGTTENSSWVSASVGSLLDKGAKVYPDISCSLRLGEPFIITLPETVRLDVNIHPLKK

Regarding `NC(=O)c1ccc[n+]([C@@H]2O[C@H](COP(=O)(O)OP(=O)(O)OC[C@H]3O[C@@H](n4cnc5c(N)ncnc54)[C@H](O)[C@@H]3O)[C@@H](O)[C@H]2O)c1` [NAD^+], the chemical shift perturbation entry is given as “The addition of NAD^+ caused substantial chemical shift perturbations for several resonances”.
